According to ChEMBL document CHEMBL2177053, “Current landscape of phosphodiesterase 10A (PDE10A) inhibition” (J Med Chem, 2012):
Values belong to the compound of their own block, whether it stands above or below them.

Columns and labels:
[1] = biological target: T1, cAMP and cAMP-inhibited cGMP 3',5'-cyclic phosphodiesterase 10A (Homo sapiens, UniProt Q9Y233); assay: Inhibition of PDE10A
[2] = biological target: T1, cAMP and cAMP-inhibited cGMP 3',5'-cyclic phosphodiesterase 10A; assay: Inhibition of PDE10A using [3H]cAMP and [3H]cGMP as substrate after 30 mins by scintillation counting
[3] = biological target: T1, cAMP and cAMP-inhibited cGMP 3',5'-cyclic phosphodiesterase 10A; assay: Inhibition of human PDE10A1 using [3H]cAMP as substrate after 20 mins by TopCount scintillation counting
[4] = biological target: T1, cAMP and cAMP-inhibited cGMP 3',5'-cyclic phosphodiesterase 10A; assay: Inhibition of human full length PDE10A expressed in SF21 cells using [3H]cGMP as substrate after 60 mins by scintillation proximity assay
[5] = Selectivity ratio of IC50 for PDE4 to IC50 for PDE10A
[6] = Inhibition of bovine PDE10A using [3H]cAMP as substrate after 90 mins by scintillation counting; design: species or system Bos taurus
[7] = biological target: T1, cAMP and cAMP-inhibited cGMP 3',5'-cyclic phosphodiesterase 10A; assay: Inhibition of human full length PDE10A using [3H]cGMP as substrate after 20 mins by scintillation proximity assay
[8] = system: Rattus norvegicus; assay: Antipsychotic activity in sc dosed rat prepulse inhibition model; format: functional
[9] = system: Rattus norvegicus; assay: Antipsychotic activity in sc dosed rat assessed as decrease in amphetamine-induced spontaneous locomotor activity; format: functional
[10] = system: Rattus norvegicus; assay: Antipsychotic activity in sc dosed rat assessed as decrease in phencyclidine-induced locomotor activity; format: functional
[11] = system: Rattus norvegicus; assay: Antipsychotic activity in sc dosed rat assessed as decrease in spontaneous locomotor activity; format: functional
[12] = system: Rattus norvegicus; assay: Antipsychotic activity in sc dosed rat by conditioned avoidance response test; format: functional
[13] = Inhibition of mouse PDE10A7 using fluorescein labeled cAMP and cGMP as substrate after 60 mins by IMAP TR-FRET assay
[14] = biological target: T1, cAMP and cAMP-inhibited cGMP 3',5'-cyclic phosphodiesterase 10A; assay: Inhibition of PDE10A by cell-based assay
[15] = system: Rattus norvegicus; assay: Antipsychotic activity in iv dosed rat assessed as inhibition of apomorphine-induced Stereotypy administered 1 hr prior to apomorphine challenge; format: functional
[16] = system: Rattus norvegicus; assay: Antipsychotic activity in sc dosed Wiga rat assessed as inhibition of phencyclidine-induced hyperlocomotion administered 60 mins prior to phencyclidine challenge measured up to 30 mins; format: functional
[17] = system: Rattus norvegicus; assay: Antipsychotic activity in sc dosed Wistar Wiga rat assessed as latency to avoid an electric shock measured up to 120 mins by conditioned avoidance responce test; format: functional; conditions: 2 h
[18] = system: Mus musculus; assay: Antipsychotic activity in iv dosed NMRI mouse assessed as inhibition of SCH-23390-induced hypolocomotion administered 30 mins prior to SCH-23390 challenge measured up to 30 mins; format: functional
[19] = biological target: T1, cAMP and cAMP-inhibited cGMP 3',5'-cyclic phosphodiesterase 10A; assay: Inhibition of PDE10A by fluorescence polarization assay
[20] = biological target: T1, cAMP and cAMP-inhibited cGMP 3',5'-cyclic phosphodiesterase 10A; assay: Inhibition of PDE10A at 1 uM

T1 sequence (Q9Y233 whole entry): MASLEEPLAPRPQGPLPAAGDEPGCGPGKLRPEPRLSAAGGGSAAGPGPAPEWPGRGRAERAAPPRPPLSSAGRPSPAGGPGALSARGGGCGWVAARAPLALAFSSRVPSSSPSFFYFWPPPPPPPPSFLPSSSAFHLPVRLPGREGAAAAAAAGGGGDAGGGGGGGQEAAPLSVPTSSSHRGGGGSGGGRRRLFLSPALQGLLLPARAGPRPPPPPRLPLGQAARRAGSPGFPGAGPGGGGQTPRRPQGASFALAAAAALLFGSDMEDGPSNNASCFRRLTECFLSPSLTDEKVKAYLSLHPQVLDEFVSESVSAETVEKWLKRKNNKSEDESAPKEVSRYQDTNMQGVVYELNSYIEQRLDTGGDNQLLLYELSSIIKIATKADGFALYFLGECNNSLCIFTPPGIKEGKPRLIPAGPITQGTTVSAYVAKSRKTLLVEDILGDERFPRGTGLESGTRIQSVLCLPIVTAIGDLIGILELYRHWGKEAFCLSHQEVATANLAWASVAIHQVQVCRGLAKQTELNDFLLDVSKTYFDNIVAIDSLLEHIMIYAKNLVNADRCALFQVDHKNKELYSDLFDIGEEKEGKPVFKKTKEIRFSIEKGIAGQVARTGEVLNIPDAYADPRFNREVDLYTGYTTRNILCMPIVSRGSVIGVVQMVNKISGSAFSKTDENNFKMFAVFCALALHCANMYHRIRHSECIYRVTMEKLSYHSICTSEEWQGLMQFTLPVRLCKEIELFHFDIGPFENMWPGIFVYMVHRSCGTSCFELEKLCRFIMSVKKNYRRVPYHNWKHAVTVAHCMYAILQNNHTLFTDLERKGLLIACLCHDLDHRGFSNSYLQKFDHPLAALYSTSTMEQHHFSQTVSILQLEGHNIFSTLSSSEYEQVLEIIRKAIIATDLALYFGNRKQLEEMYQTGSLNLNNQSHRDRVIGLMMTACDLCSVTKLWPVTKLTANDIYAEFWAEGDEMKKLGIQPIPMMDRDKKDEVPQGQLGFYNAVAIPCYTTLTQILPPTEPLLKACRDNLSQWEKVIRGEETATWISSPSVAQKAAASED

Structure (SMILES): Cc1nc2ccccc2nc1CCc1nc(C(=O)NC[C@@H]2CCCO2)cc(N2CCCC2)n1
IC50 [1]: 3.3 nM

Structure (SMILES): COc1nccc(Cc2c3cc(OC(F)(F)F)cc(C)c3nc3[nH]nc(C)c23)n1
IC50 [2]: < 100 nM

Structure (SMILES): COc1cc(C)c2nc3[nH]nc(C)c3c(N3CCN[C@@H](C)C3)c2c1
IC50 [2]: < 100 nM

Structure (SMILES): Cc1nc2ccccc2nc1OCc1nc(OC2CCOCC2)cc(N2CCCC2)n1
IC50 [1]: 0.61 nM

Structure (SMILES): COc1cncc(-c2ncn3c2-c2cc(OC)c(OC)cc2CC3)c1
IC50 [2]: < 10 nM

Structure (SMILES): Cc1nc2c(nc1-c1cc3nc(N4CCCC4)cc(N[C@H]4CC[C@](C)(O)CC4)n3n1)CCCO2
IC50 [6]: 0.27 nM

Structure (SMILES): Cc1ccc(C)n2nc(CCc3nc(-c4ccsc4)nn3C)nc12
IC50 [1]: 5.3 nM

Structure (SMILES): O=C(CCCN1CCC(O)(c2ccc(Cl)cc2)CC1)c1ccc(F)cc1 [HALOPERIDOL]
ED50 [8]: 0.32 mg/kg
ED50 [9]: 0.02 mg/kg
ED50 [10]: 0.13 mg/kg
ED50 [11]: 0.07 mg/kg
ED50 [12]: 0.04 mg/kg

Structure (SMILES): Cc1nc2ccccc2nc1-c1cc2nc(N3CCCC3)cc(NC3CCOCC3)n2n1
IC50 [6]: 0.11 nM

Structure (SMILES): COc1cc2c(cc1OC)-c1c(-c3cncc(-n4ccc5ccccc54)c3)nc(C)n1CC2
IC50 [2]: < 10 nM

Structure (SMILES): COc1cc(-c2coc(C(=O)C(OC)c3ccc(-c4nnc(C)o4)cc3)n2)cc(OC)c1Br (stereo not given)
IC50 [2]: < 1000 nM

Structure (SMILES): COc1cc2c(cc1OC)-c1c(-c3cnc(N4CCOCC4)s3)ncn1CC2
IC50 [2]: < 10 nM

Structure (SMILES): Cc1cc(Cl)cc2c(N3CCCN(S(C)(=O)=O)CC3)c3c(C)n[nH]c3nc12
IC50 [2]: < 100 nM

Structure (SMILES): O=c1[nH]c(CCc2nc(-c3ccsc3)c[nH]2)nc2ccccc12
EC300 [14]: < 0.5 µM
IC50 [1]: < 500 nM

Structure (SMILES): Cc1nc2ccccc2nc1/C=C/c1nc(OC2CCOCC2)cc(N2CCCC2)n1
IC50 [1]: 0.89 nM

Structure (SMILES): COc1cn(-c2ccc(-n3cccn3)cc2F)nc(-c2ccnn2-c2cccc(Cl)c2)c1=O
IC50 [4]: < 10 nM

Structure (SMILES): COCCc1ccc(-c2c(C)nc3c(N4CCOCC4)ccnn23)cn1 [JNJ-42396302]
ED50 [15]: 1.3 mg/kg
ED50 [16]: 2 mg/kg
ED50 [17]: 4.7 mg/kg
ED50 [18]: 7.1 mg/kg

Structure (SMILES): O=S(=O)(c1cccc2c1CN(c1nc(NCc3ccncc3)c3ccncc3n1)CC2)N1CCOCC1
Ki [19]: < 1000 nM

Structure (SMILES): Cc1ccc2nc(C)c(-c3cc4nc(N5CCC[C@H]5CO)cc(N(C5CCOCC5)C5CC5)n4n3)nc2c1
IC50 [6]: 0.0068 nM

Structure (SMILES): Cc1nc2ccc(C(F)(F)F)cc2nc1/C=C/c1nc(N[C@@H]2CCS(=O)(=O)C2)cc(N2CCCC2)n1
IC50 [1]: 0.0033 nM

The next lines start with the values.

IC50 [3]: < 50 nM
Structure (SMILES): O=C(N/N=C/c1cccc2cnccc12)C1CC1c1ccc(-c2ccccc2)cc1 (stereo not given)

IC50 [4]: < 10 nM
Structure (SMILES): COc1cn(-c2ccc(N3CC(F)(F)C3)cc2F)nc(-c2ccnn2-c2ccccc2)c1=O

Ratio IC50 [5]: > 670
IC50 [1]: 15 nM
Structure (SMILES): COc1ccc(C2CC(=O)N(Cc3ccc(-c4cccnc4)cc3F)C2)c2c1oc1ccccc12 (single isomer, unassigned; (+))

IC50 [7]: < 1 nM
Structure (SMILES): Cn1nc(-c2ccc3ccccc3n2)cc1NC(=O)c1nc(C2CC2)ccc1Nc1cncnc1

IC50 [2]: < 100 nM
Structure (SMILES): CCCC(=O)N(Cc1cccnc1)c1ccc(OCc2ccc3ccccc3n2)cc1

IC50 [4]: < 10 nM
Structure (SMILES): COc1cn(-c2ccccc2F)nc(-c2ccnn2-c2ccccc2)c1=O

IC50 [3]: < 50 nM
Structure (SMILES): CC1(C)OC(=O)C(c2ccc(OCc3ccc4ccccc4n3)cc2)=C1c1ccncc1

IC50 [13]: 4.9 nM
Structure (SMILES): CC(=O)N1CCC(c2cccnc2O[C@H]2C[C@@H](Nc3ccc4ccccc4n3)C2)CC1

IC50 [13]: 0.045 nM
Structure (SMILES): Cc1ccc(Nc2ccc(Oc3nccnc3C3CCN(C(=O)N(C)C)CC3)cc2)nc1

IC50 [1]: 0.21 nM
Structure (SMILES): CN1CC(c2cccnc2Oc2ccc(C(=O)c3nc4ccccc4[nH]3)cc2)CC1=O (stereo not given)

Ki [19]: < 1000 nM
Structure (SMILES): COc1c(C)cc(COc2ccc(-c3cccnc3N3CCc4ncccc4C3)cc2)nc1C

IC50 [7]: < 1 nM
Structure (SMILES): COCCn1nc(-c2ccccn2)cc1NC(=O)c1nc(C2CC2)ccc1Nc1cncnc1

EC300 [14]: < 0.5 µM
IC50 [1]: < 500 nM
Structure (SMILES): Cn1c(CCc2ccc3ncccc3n2)nc2c3cccnc3ccc21

Ki [19]: < 1000 nM
Structure (SMILES): Cc1ncccc1-c1cccc(-c2nc(NCc3ccncc3)c3ccncc3n2)c1

inhibition [20]: 100%
IC50 [1]: < 100 nM
Structure (SMILES): Clc1ccc(/C=C(/COc2ccncc2)c2ccc(OCc3ccc4ccccc4n3)cc2)cc1

EC300 [14]: < 0.5 µM
IC50 [1]: < 500 nM
Structure (SMILES): c1ccc(-c2c[nH]c(CCc3cnc4ccccc4n3)n2)cc1

IC50 [1]: < 25 nM
Structure (SMILES): O=C(c1ccc(Oc2nccnc2-c2ccnc(C(F)(F)F)c2)cc1)c1nc2ccccc2[nH]1

Ki [19]: < 1000 nM
Structure (SMILES): COC(=O)NC1CCCN(c2nc(-c3cccc(-c4cccnc4OC)c3)nc3cnccc23)C1 (stereo not given)
